In ChEMBL document CHEMBL5653615 (J Biol Chem, 2013) one finds inhibition and IC50 data, which are given here for 2 molecules.

The target of assay [1] is T1, Serine/threonine-protein kinase Nek3 (Homo sapiens) (UniProt P51956).
T1 sequence (whole entry): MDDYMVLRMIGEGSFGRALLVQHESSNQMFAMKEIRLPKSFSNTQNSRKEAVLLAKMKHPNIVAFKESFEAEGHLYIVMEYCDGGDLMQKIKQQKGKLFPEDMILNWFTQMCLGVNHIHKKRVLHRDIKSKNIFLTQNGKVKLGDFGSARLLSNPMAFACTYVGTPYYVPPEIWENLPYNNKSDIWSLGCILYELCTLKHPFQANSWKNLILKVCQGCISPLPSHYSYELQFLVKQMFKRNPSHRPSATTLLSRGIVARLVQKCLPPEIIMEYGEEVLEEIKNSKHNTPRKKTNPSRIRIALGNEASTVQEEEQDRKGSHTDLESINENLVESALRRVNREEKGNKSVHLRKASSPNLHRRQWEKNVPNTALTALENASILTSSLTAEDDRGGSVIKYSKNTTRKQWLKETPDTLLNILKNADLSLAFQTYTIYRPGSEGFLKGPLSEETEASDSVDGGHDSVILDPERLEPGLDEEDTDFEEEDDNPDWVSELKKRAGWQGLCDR
The experiment in a line: Inhibition of human NEK3 at 500 nM by HotSpot assay relative to control.

The target in assay [2] is Insulin-like growth factor 1 receptor (Homo sapiens, UniProt P08069). The assay is described as follows: Inhibition of inactive form of IGF-1R (unknown origin) kinase domain incubated for 1 hr by [gamma-33P]ATP assay.
The target in assay [3] is T2, Tyrosine-protein kinase ITK/TSK (Homo sapiens) (UniProt Q08881).
T2 sequence (whole entry): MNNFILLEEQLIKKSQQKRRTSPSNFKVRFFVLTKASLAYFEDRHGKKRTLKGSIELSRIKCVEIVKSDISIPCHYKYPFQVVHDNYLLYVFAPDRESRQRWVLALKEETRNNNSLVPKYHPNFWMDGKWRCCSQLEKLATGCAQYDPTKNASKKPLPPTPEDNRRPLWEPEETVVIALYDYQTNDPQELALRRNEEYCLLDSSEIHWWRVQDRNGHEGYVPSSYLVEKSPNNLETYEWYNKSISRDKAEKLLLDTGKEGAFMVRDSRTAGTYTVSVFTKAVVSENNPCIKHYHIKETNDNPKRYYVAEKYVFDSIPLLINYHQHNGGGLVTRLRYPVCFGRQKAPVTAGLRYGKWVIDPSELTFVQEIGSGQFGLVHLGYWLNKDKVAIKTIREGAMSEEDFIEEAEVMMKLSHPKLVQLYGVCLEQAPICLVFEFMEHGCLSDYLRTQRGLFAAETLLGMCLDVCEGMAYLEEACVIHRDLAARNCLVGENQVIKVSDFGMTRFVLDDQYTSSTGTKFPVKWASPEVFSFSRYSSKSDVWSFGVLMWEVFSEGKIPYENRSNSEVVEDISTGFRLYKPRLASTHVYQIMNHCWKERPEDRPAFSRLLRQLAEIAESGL
The assay is described as follows: Inhibition of human ITK at 500 nM by HotSpot assay relative to control.

Assay [4] addresses MAP kinase-activated protein kinase 5 (Homo sapiens) (UniProt Q8IW41). The experiment in a line: Inhibition of human MAPKAPK5 at 500 nM by HotSpot assay relative to control.
Assay [5] concerns the target Protein-tyrosine kinase 2-beta (Homo sapiens) (UniProt Q14289). The experiment in a line: Inhibition of human PYK2 at 500 nM by HotSpot assay relative to control.
Assay [6] concerns the target Cyclin-dependent kinase 2/cyclin E1 (Homo sapiens) (UniProt P24864+P24941). The experiment in a line: Inhibition of human CDK2/cyclin E at 500 nM by HotSpot assay relative to control. It is filed as protein-complex assay.
The target of assay [7] is Wee1-like protein kinase (Homo sapiens) (UniProt P30291). The experiment in a line: Inhibition of human WEE1 at 500 nM by HotSpot assay relative to control.
The target of assay [8] is Aurora kinase B (Homo sapiens) (UniProt Q96GD4). The assay is described as follows: Inhibition of human Aurora B at 500 nM by HotSpot assay relative to control.
Assay [9] concerns the target CDK9/cyclin T1 (Homo sapiens) (UniProt O60563+P50750). The experiment in a line: Inhibition of human CDK9/cyclin T1 at 500 nM by HotSpot assay relative to control. It is filed as protein-complex assay.
Assay [10] has as its target T3, Serine/threonine-protein kinase TBK1 (Homo sapiens) (UniProt Q9UHD2).
T3 sequence (whole entry): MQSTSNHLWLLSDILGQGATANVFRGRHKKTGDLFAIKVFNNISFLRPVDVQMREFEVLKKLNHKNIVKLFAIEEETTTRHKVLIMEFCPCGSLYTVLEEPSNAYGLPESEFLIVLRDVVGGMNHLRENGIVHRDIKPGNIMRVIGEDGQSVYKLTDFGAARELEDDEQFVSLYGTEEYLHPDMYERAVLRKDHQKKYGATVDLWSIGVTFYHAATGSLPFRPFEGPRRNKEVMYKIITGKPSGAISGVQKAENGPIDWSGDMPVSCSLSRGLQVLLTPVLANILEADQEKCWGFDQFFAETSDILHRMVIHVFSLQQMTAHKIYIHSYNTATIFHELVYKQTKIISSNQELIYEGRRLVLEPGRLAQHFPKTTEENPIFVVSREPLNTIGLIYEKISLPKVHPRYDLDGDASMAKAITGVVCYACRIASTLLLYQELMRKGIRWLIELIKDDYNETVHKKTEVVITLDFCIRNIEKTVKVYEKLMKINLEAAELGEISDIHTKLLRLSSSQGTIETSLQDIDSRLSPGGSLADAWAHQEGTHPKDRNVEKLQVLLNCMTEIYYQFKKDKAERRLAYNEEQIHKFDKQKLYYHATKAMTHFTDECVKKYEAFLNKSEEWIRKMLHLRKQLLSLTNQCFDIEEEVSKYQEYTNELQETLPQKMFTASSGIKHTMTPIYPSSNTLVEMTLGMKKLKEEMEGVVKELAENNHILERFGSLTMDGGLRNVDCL
The experiment in a line: Inhibition of human TBK1 at 500 nM by HotSpot assay relative to control.

Assay [11] concerns the target Protein kinase C eta type (Homo sapiens) (UniProt P24723). The experiment in a line: Inhibition of human PKCeta at 500 nM by HotSpot assay relative to control.

Sequence of Aurora kinase B (Homo sapiens) (Q96GD4 whole entry): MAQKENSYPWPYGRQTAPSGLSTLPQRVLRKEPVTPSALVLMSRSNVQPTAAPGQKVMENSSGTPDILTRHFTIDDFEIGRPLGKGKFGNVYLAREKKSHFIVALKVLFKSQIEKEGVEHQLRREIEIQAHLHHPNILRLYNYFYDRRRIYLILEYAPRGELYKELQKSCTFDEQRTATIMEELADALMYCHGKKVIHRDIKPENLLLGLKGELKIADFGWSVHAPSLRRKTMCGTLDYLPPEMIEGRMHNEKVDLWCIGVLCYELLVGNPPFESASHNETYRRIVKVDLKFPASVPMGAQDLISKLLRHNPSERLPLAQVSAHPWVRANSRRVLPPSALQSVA
Sequence of MAP kinase-activated protein kinase 5 (Homo sapiens) (Q8IW41 whole entry): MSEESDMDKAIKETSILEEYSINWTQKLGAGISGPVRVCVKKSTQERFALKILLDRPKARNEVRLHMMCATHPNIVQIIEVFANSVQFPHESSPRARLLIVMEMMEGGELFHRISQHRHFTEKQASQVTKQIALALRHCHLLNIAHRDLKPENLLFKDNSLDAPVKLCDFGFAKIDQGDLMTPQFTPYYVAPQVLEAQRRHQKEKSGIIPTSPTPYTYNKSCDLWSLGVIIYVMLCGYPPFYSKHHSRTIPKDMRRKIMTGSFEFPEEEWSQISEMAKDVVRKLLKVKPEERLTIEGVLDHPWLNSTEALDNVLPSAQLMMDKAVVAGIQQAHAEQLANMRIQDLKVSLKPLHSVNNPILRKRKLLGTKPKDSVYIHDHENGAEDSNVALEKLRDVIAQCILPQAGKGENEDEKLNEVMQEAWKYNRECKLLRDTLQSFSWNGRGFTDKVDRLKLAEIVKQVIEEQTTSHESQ
Sequence of Wee1-like protein kinase (Homo sapiens) (P30291 whole entry, looked up): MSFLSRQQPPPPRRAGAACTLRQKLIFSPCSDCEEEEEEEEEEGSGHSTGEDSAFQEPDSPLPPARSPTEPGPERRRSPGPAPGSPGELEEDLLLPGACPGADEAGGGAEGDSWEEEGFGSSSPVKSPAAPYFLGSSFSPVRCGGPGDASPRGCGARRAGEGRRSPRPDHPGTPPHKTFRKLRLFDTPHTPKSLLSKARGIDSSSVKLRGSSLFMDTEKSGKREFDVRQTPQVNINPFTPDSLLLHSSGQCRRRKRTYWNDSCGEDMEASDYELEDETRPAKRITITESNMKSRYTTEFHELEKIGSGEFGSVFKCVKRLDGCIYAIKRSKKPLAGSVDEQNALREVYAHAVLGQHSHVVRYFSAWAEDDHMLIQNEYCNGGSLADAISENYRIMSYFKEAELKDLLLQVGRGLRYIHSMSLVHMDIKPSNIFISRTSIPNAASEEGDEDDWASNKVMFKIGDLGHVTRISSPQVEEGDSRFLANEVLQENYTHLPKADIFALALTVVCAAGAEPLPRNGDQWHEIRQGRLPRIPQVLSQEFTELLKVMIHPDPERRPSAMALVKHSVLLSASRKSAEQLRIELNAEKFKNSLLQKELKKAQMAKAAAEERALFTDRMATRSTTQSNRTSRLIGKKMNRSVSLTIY
Sequence of Protein-tyrosine kinase 2-beta (Homo sapiens) (Q14289 whole entry, looked up): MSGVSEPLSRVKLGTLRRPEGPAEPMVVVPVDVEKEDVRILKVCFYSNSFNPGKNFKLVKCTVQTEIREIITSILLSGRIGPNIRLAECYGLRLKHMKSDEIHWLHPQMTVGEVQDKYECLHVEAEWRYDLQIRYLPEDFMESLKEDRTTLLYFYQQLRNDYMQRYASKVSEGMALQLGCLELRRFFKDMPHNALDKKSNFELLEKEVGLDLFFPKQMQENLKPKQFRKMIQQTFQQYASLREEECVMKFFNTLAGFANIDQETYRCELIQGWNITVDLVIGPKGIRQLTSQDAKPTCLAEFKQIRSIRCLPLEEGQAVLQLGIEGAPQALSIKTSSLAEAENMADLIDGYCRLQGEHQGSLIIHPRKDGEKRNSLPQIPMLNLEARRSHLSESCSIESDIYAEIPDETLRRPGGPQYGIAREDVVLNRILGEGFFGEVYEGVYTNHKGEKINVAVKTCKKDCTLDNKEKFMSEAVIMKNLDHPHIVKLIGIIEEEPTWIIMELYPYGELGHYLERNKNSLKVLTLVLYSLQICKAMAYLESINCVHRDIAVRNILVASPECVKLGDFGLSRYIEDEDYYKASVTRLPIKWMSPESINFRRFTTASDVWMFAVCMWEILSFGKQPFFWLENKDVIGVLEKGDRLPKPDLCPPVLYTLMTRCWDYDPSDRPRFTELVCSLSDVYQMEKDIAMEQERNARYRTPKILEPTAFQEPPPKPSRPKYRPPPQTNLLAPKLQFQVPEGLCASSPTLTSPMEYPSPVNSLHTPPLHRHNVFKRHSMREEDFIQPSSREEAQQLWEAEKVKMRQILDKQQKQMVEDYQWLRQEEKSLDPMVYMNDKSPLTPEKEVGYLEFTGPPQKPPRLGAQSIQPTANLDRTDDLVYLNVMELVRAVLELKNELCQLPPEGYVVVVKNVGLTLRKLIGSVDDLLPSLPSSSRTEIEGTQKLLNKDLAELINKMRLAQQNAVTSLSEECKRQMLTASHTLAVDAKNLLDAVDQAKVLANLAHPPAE
Sequence of Protein kinase C eta type (Homo sapiens) (P24723 whole entry): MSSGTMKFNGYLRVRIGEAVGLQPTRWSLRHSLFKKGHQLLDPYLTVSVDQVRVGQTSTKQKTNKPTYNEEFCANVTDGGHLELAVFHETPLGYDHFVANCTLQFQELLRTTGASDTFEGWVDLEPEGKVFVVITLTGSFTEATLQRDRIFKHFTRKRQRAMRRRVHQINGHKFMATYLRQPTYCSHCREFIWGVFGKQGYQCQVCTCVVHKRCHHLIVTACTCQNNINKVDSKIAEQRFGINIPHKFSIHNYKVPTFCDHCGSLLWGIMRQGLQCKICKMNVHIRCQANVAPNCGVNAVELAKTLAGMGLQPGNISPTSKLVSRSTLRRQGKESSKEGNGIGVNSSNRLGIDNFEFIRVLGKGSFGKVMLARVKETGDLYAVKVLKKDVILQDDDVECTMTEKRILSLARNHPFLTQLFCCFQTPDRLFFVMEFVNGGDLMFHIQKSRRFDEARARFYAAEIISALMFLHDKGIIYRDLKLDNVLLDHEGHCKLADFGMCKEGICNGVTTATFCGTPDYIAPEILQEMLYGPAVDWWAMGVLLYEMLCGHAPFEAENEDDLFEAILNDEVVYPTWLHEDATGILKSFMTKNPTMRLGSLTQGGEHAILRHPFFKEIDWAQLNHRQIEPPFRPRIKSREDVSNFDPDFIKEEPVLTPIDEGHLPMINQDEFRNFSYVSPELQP
Sequence of Insulin-like growth factor 1 receptor (P08069 31-736 limits assumed): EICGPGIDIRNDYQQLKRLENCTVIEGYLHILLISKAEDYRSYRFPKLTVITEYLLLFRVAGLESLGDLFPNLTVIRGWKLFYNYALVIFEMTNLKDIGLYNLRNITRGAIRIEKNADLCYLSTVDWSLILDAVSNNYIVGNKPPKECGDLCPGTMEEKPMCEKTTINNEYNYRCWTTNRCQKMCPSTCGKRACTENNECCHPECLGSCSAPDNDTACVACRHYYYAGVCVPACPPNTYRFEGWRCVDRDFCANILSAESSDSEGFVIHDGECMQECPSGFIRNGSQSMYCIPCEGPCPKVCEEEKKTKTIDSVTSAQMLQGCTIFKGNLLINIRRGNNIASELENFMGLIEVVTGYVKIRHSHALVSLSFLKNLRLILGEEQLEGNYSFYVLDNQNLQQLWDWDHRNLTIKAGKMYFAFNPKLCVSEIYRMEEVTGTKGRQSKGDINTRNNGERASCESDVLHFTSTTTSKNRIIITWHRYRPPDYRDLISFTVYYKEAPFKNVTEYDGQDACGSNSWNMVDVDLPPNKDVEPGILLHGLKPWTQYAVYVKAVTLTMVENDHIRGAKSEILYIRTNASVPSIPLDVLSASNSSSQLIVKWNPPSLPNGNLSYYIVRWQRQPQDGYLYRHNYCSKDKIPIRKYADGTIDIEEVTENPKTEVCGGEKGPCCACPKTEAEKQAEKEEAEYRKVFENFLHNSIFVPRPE
Sequence of Insulin-like growth factor 1 receptor (P08069 741-1367 limits assumed): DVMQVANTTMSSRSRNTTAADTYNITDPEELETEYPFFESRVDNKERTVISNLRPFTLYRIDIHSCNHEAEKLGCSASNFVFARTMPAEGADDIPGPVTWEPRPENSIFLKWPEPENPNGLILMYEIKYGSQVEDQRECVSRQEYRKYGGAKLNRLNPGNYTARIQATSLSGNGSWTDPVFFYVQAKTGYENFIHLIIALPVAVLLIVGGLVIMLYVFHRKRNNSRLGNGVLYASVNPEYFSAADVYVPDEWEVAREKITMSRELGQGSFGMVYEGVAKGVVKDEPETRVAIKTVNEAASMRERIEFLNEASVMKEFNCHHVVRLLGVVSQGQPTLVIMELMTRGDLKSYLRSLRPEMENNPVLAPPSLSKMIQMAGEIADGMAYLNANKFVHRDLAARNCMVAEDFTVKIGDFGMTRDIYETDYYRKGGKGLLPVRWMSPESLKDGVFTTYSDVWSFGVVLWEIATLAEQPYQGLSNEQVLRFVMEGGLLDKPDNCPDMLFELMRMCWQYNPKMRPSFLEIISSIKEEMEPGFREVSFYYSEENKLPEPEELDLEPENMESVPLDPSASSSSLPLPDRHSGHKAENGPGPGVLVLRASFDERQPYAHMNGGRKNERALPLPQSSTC

Regarding `Oc1n[nH]c2nnc(-c3c(-c4ccccc4)nn4ccccc34)cc12`, the inhibition came out at 12.8% in assay [1]; 6.55% in [3]; 4.74% in assay [4]; 2.81% in assay [5]; 0.01% in [6]; 20.8% in assay [7]. Besides, the inhibition is 2.45% in assay [8], 3.66% in assay [9], -4.04% in [10] and 3.76% in assay [11]. This molecule gave an IC50 in assay [2] of 10.2 µM.
For the molecule `Nc1n[nH]c2nnc(-c3c(-c4ccccc4)nn4ccccc34)cc12`, the inhibition in assay [1] was 17.3%; in assay [3] it was 9.17%; in assay [4], 2.31%; in assay [5] it was 4.57%; in assay [6], -0.67%; in assay [7], 7.57%. The inhibition in assay [8] was 3.24%; in assay [9], 2.74%; in [10], -0.37%; in assay [11] it was 22.8%. For the same molecule, the IC50 in assay [2] is 32.5 µM.

What is called inhibition is the drop in the measured response relative to a control, in per cent. The term IC50 denotes the concentration needed to halve the response being measured. Low readings indicate greater potency, high ones weaker potency.
